Measured values as given in patent US6391284B1, “Nonalcoholic pharmaceutical preparations from formulations including alcohol and process for the preparation thereof” (priority 2001, dated 2002).

Test: Solubility in water
Assay type: physicochemical

CC1=C(/C=C/C(C)=C/C=C/C(C)=C\C(=O)O)C(C)(C)CCC1 [cis-retinoic acid]
water solubility: extremely water insoluble
